Columns and labels:
[1] = UV and visible light absorption spectra of stabilizers; assay type: physicochemical; settings: acetonitrile
Experimental: UV and visible light absorption spectra were recorded to investigate to what extent each stabilizer itself absorbs UV light. […] Protoporphyrin IX has weak absorption bands above 450 nm, where the two compounds are transparent (FIG. 2). The compound with the oxygen bridge (Formula II(d)(1)) caused a bathocromic shift of the UV absorption of the lowest energy band. The compound with the sulfur bridge (Formula II(e)(1)) shifted the lowest energy band further into the visible region.

[2] = Singlet oxygen generation by stabilizers upon direct UV photolysis at 355 nm; assay type: physicochemical; settings: air saturated CCl4, benzophenone as reference
Experimental: To investigate to what extent the stabilizers can generate singlet oxygen upon direct UV photolysis, singlet oxygen phosphorescence measurements were performed under photolysis at 355 nm. For these experiments CCl4 was selected as solvent, because of the long lifetime of singlet oxygen in this solvent, which makes these experiments easier to perform. Weak singlet oxygen signals were observed upon photolysis at 355 nm (FIG. 12). Using benzophenone as reference (quantum yield of singlet oxygen generation: 0.35) the low quantum yields of singlet oxygen generation were estimated: compound of Formula I(a)(1): 0.015 and alkoxy crylene: ˜0.001.
To ensure that the observed weak singlet oxygen signals truly originated from the two compounds and not from possible impurities in the sample or solvent, singlet oxygen phosphorescence excitation spectra were recorded.

[3] = Singlet oxygen phosphorescence from photoexcited protoporphyrin IX in air saturated DMSO-d6; assay type: physicochemical
Text: Singlet oxygen was generated by pulsed laser excitation in the UV (355 nm) by protoporphyrin IX. Protoporphyrin IX was selected on the basis of its high extinction coefficient (FIG. 2). The solvent DMSO-d6 was selected because of good solubility of the sensitizer and stabilizers. The deuterated form of DMSO was used because of the longer singlet oxygen lifetime in deuterated solvents compared to solvents containing hydrogen. FIG. 10 and FIG. 11 show kinetic traces of singlet oxygen phosphorescence generated from photoexcitation of protoporphyrin IX. […] Excited state quenching of the protoporphyrin IX by the two compounds is unlikely to occur at these low stabilizer concentrations (μM).
In the previous experiments, singlet oxygen was generated by pulsed laser excitation in the UV spectral region (355 nm) of protoporphyrory IX. […] This was explained by a simple optical screening mechanism, where the compound of Formula I(a)(1) and alkoxy crylene absorb the UV light.
In this example, laser excitation was performed with visible light at 532 nm, where the compound of Formula I(a)(1) and the alkoxy crylene compound are transparent. […] The absence of singlet oxygen suppression with 532 nm excitation supports the optical screening mechanism with 355 nm excitation. […]

[4] = test system: visible light-induced free radicals in pig skin; assay: Visible light-induced free radicals in ALA-treated pig skin by Electron Spin Resonance; settings: for Free Radicals (%): relative to 0 mM; for Free Radicals (a.u.): topical, ALA-treated pig skin
Experimental: A conjugated fused tricycle compound according to Formula II(a)(1) reduced visible light-induced free radicals in skin by up to 89% and did so in a dose-dependent manner (FIG. 21). The study was conducted using pig skin, which is recognized for its similarity to human skin. Topical application of aminolevulinic acid (ALA) induced the skin to over-produce the endogenous photosensitizer Protoporphyrin IX (PPIX). Solutions of Formula II(a)(1) at different concentrations were then topically applied to the ALA treated skin after which it was exposed to bright green light. The resulting free radical content of the skin was then measured by Electron Spin Resonance (ESR). Studies conducted in solution have shown that Formula II(a)(1) suppresses singlet oxygen production by PPIX. […] The mechanisms of action of Formula II(a)(1) and Tocopherol are different: the former prevents free radicals from forming; the latter scavenges free radicals after they appear.

[5] = Solubility in DMSO, PBS buffer and cell culture media; assay type: physicochemical
Experimental: All Conjugated fused polycyclic compounds tested (including Formulas II(a)(1), II(b)(1) and II(c)(1), and II(bk)) are highly soluble in DMSO, but poorly soluble in PBS buffer and cell culture medium. Formulas II(b)(1) and II(c)(1) can remain soluble in PBS buffer or cell culture medium if its concentration is less 0.2 mM. At concentrations higher than 0.2 mM, the solution begins to cloud and become emulsion like. This emulsion is able to remain stable for as long as 8 hours. Formula II(bk) is less soluble in PBS buffer and cell culture medium. It was only observed to dissolve in PBS at concentrations of 0.1 mM or less. Similar to Formulas II(b)(1) and II(c)(1), increasing Formula II(bk) concentration above 0.1 mM results in a cloudy emulsion like solution. But this cloudy solution is fairly stable and can be kept for more than 3 days.

[6] = test system: HaCat cells; assay: Cell viability of ALA-treated HaCat cells after red light irradiation; assay type: cell-based, human; settings: 1 mM
Experimental: HaCat cells were seeded in 96-well plates and grown to confluence. Confluent cells were treated with 8 mM ALA for 2 hours. Cells then received 1 mM of Formula II(a)(1), II(b)(1)+II(c)(1), or II(bk). Following a one-hour incubation, cells were irradiated for 3 minutes and immediately washed with naïve cell culture media once. Additional cell culture media was added and the cells were cultured for 24 hours. A cell viabilty agent was added to each well and incubated for 2 hours. Cell viability was analyzed at the conclusion of this incubation by measuring the fluorescence intensity (excitation/emission 560/590) of each well. Results shown in FIG. 26 indicate that control cells (without conjugated fused polycyclic compound treatment) were almost completely killed by phototoxic ROS induced by ALA and light irradiation. Cell viability (cell metabolic activity) of light irradiated cells (without conjugated fused polycyclic) was only […] of normal cell control (no treatment). […] About 50% of Formula II(a)(1) treated cells survived, while cells without conjugated fused polycyclic compound exposure and cells treated with II(bk) were almost 100% dead. […] The Formula II(a)(1) was also observed to protect cells from light irradiation induced injury (relative cell viability 61%). […]

[7] = test system: HaCat cells; assay: Dark toxicity analysis in HaCat cells (no irradiation); assay type: cell-based, human; settings: 1 mM with ALA, no red light irradiation
Experimental: To make sure that ALA and conjugated fused polycyclics treatments themselves are not influencing cell viability, (or cause cellular toxicity), dark toxicity analysis was performed. The experiment procedures were exactly same as above for cell viability analysis except that the red light irradiation step was omitted.

COC(=O)C(C#N)=C1c2ccccc2-c2ccccc21 [Formula I(a)(1)]
λmax [1]: 334 nm
extinction coefficient (molar absorptivity) ([1]; at λmax): 16,200 M −1 cm −1
quantum yield of singlet oxygen generation [2]: 0.015
singlet oxygen phosphorescence ([3]; 355 nm excitation, 250 μM stabilizer): significantly reduced singlet oxygen phosphorescence
concentration above which the amount of generated singlet oxygen was reduced ([3]; 532 nm excitation): above 3 mM

COC(=O)C(C#N)=C1c2ccccc2C(=O)c2ccccc21 [Formula II(a)(1)]
Free Radicals (%) ([4]; 1.25 mM): 92%
Free Radicals (a.u.) ([4]; 1.25 mM): 2311 ± 331 a.u.
Free Radicals (%) ([4]; 2.5 mM): 46%
Free Radicals (a.u.) ([4]; 2.5 mM): 1162 ± 225 a.u.
Free Radicals (%) ([4]; 5 mM): 11%
Free Radicals (a.u.) ([4]; 5 mM): 270 ± 88 a.u.
Free Radicals (%) ([4]; 10 mM): 19%
Free Radicals (a.u.) ([4]; 10 mM): 475 ± 212 a.u.
reduction of visible light-induced free radicals in skin ([4]; dose-dependent, maximum): up to 89%
free radical reduction compared with Tocopherol ([4]; same conditions): superior to Tocopherol
solubility in PBS buffer and cell culture medium (in words) [5]: especially difficult to dissolve
stability of solution ([5]; 0.05 mM in PBS buffer): not observed to be stable for long
precipitation ([5]; one hour after adding to PBS buffer or cell culture medium): almost all Formula II(a)(1) precipitatde
relative cell viability ([6]; 8 mM ALA, 3 minutes irradiation, 24 hours culture, vs normal cell control): 61%
treated cells that survived ([6]; after irradiation): About 50%
dark toxicity [7]: a little toxicity

From patent publication US9611246B2, “Compositions, apparatus, systems, and methods for resolving electronic excited states” (HALLSTAR INNOVATIONS CORP., priority 2012, dated 2017)
